# Assay results: patent publication US20020052295A1, “Diacyl derivatives of propylene diamine having herbicidal activity” (priority 1999, published 2002)
# Tests used:
# SOLNI [1] = test: Post-emergence herbicidal activity on SOLNI (black nightshade); format: in vivo, Solanum nigrum; settings: post-emergence spray; lowest tested rate with 80% or greater inhibition; about 14 days after treatment
# Text: (§1) All such uses, and the biological activity enabling such uses, are embraced by the term “herbicidal” herein. Tables 15 and 16 summarize results of tests conducted as described below to determine the pre-emergence herbicidal activity, in the form of a GR80 value, of illustrative compounds of this invention. […] Where herbicidal activity was evident but 80% inhibition was not achieved at the highest rate tested (typically 1000 g/ha), an asterisk (*) is shown in the following tables. Herbicidal activity evident in the form of symptoms of phytotoxicity, in the absence of at least 80% inhibition at any rate, is indicated in the tables by “phyto”. A blank cell in the following tables indicates no herbicidal or phytotoxic response at any rate tested.
# (§2) In another set of tests, the post-emergence activity of compounds of this invention was evaluated on the cool season species listed above. The following procedure was used.
# (§3) A pre-prepared topsoil mixture (described above) was placed in a pot and compacted to a depth of 1.0 to 1.25 cm from the top of the pot. Seeds of each of several monocotyledonous and dicotyledonous annual plant species were placed on top of the soil The seeds were covered with a mixture of 50% topsoil and 50% Rediearth™ in sufficient quantity to level-fill the pots. The pots were then placed on a greenhouse bench and subirrigated as needed until plants growing from the seeds had emerged and reached a suitable growth stage for post-emergence treatment, typically 9 to 14 days after planting.
# (§4) A known amount of each test compound dissolved or suspended in an appropriate organic solvent was diluted with a 50:50 mix of acetone and water and applied to the plants by spraying with a standard spray nozzle in a spray volume of 3,100 l/ha at a spray pressure of […] (30 psig). Control plants were not sprayed.
# (§5) After treatment the plants were placed in a greenhouse with a 30/21° C. day/night temperature regime and were subsequently watered as needed for growth. Approximately 14 days after treatment, the plants were observed and herbicidal efficacy recorded as percent inhibition by comparison with control plants.
# PANDI [2] = test: Pre-emergence herbicidal activity on PANDI (fall panicum); format: in vivo, Panicum dichotomiflorum; settings: lowest tested rate giving 80% or greater inhibition, approx. 14 days after planting and treating, greenhouse
# Procedure, shortened: (§6)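 Whole-plant pre-emergence assay: compound diluted into 50:50 acetone:water and applied over covered seeds in sterilized soil. Growth at 30/21 °C under mist/subirrigation; inhibition vs untreated at ~14 days, reported as GR80 over rates to typically 1000 g/ha.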
# CHEAL [3] = test: Pre-emergence herbicidal activity on CHEAL (common lambsquarters); format: in vivo, Chenopodium album; settings: lowest tested rate giving 80% or greater inhibition, approx. 14 days after planting and treating, greenhouse
# Procedure, shortened: as §6
# CONAR [4] = test: Post-emergence herbicidal activity on CONAR (field bindweed); format: in vivo, Convolvulus arvensis; settings: post-emergence spray; lowest tested rate with 80% or greater inhibition; about 14 days after treatment
# Text: as §1, §2, §3, §4, §5
# CIRAR [5] = test: Pre-emergence herbicidal activity on CIRAR (canada thistle, seedling); format: in vivo, Cirsium arvense; settings: lowest tested rate giving 80% or greater inhibition, approx. 14 days after planting and treating, greenhouse
# Procedure, shortened: as §6
# BRAPP [6] = test: Pre-emergence herbicidal activity on BRAPP (broadleaf signalgrass); format: in vivo, Brachiaria platyphylla; settings: lowest tested rate giving 80% or greater inhibition, approx. 14 days after planting and treating, greenhouse
# Procedure, shortened: as §6
# DIGSA [7] = test: Post-emergence herbicidal activity on DIGSA (large crabgrass); format: in vivo, Digitaria sanguinalis; settings: post-emergence spray; lowest tested rate with 80% or greater inhibition; about 14 days after treatment
# DIGSA [8] = test: Pre-emergence herbicidal activity on DIGSA (large crabgrass); format: in vivo, Digitaria sanguinalis; settings: lowest tested rate giving 80% or greater inhibition, approx. 14 days after planting and treating, greenhouse
# Procedure, shortened: as §6
# AMARE [9] = test: Post-emergence herbicidal activity on AMARE (redroot pigweed); format: in vivo, Amaranthus retroflexus; settings: post-emergence spray; lowest tested rate with 80% or greater inhibition; about 14 days after treatment
# Text: as §1, §2, §3, §4, §5
# SETFA [10] = test: Post-emergence herbicidal activity on SETFA (giant foxtail); format: in vivo, Setaria faberi; settings: post-emergence spray; lowest tested rate with 80% or greater inhibition; about 14 days after treatment
# Text: as §1, §2, §3, §4, §5
# CHEAL [11] = test: Post-emergence herbicidal activity on CHEAL (common lambsquarters); format: in vivo, Chenopodium album; settings: post-emergence spray; lowest tested rate with 80% or greater inhibition; about 14 days after treatment
# Text: as §1, §2, §3, §4, §5
# SORVU = test: Post-emergence herbicidal activity on SORVU (shattercane); format: in vivo, Sorghum vulgare; settings: post-emergence spray; lowest tested rate with 80% or greater inhibition; about 14 days after treatment
# Text: as §1, §2, §3, §4, §5
# BRAPP [12] = test: Post-emergence herbicidal activity on BRAPP (broadleaf signalgrass); format: in vivo, Brachiaria platyphylla; settings: post-emergence spray; lowest tested rate with 80% or greater inhibition; about 14 days after treatment
# Text: as §1, §2, §3, §4, §5
# SOLNI [13] = test: Pre-emergence herbicidal activity on SOLNI (black nightshade); format: in vivo, Solanum nigrum; settings: lowest tested rate giving 80% or greater inhibition, approx. 14 days after planting and treating, greenhouse
# Procedure, shortened: as §6
# AMARE [14] = test: Pre-emergence herbicidal activity on AMARE (redroot pigweed); format: in vivo, Amaranthus retroflexus; settings: lowest tested rate giving 80% or greater inhibition, approx. 14 days after planting and treating, greenhouse
# Procedure, shortened: as §6
# SETFA [15] = test: Pre-emergence herbicidal activity on SETFA (giant foxtail); format: in vivo, Setaria faberi; settings: lowest tested rate giving 80% or greater inhibition, approx. 14 days after planting and treating, greenhouse
# Procedure, shortened: as §6
# ABUTH [16] = test: Pre-emergence herbicidal activity on ABUTH (velvetleaf); format: in vivo, Abutilon theophrasti; settings: lowest tested rate giving 80% or greater inhibition, approx. 14 days after planting and treating, greenhouse
# Procedure, shortened: as §6
# DATST [17] = test: Pre-emergence herbicidal activity on DATST (jimsonweed); format: in vivo, Datura stramonium; settings: lowest tested rate giving 80% or greater inhibition, approx. 14 days after planting and treating, greenhouse
# Procedure, shortened: as §6
# ABUTH [18] = test: Post-emergence herbicidal activity on ABUTH (velvetleaf); format: in vivo, Abutilon theophrasti; settings: post-emergence spray; lowest tested rate with 80% or greater inhibition; about 14 days after treatment
# Text: as §1, §2, §3, §4, §5
# SORHA [19] = test: Pre-emergence herbicidal activity on SORHA (johnsongrass, seedling); format: in vivo, Sorghum halepense; settings: lowest tested rate giving 80% or greater inhibition, approx. 14 days after planting and treating, greenhouse
# Procedure, shortened: as §6
# CIRAR [20] = test: Post-emergence herbicidal activity on CIRAR (canada thistle, seedling); format: in vivo, Cirsium arvense; settings: post-emergence spray; lowest tested rate with 80% or greater inhibition; about 14 days after treatment
# Text: as §1, §2, §3, §4, §5
# ECHCG [21] = test: Post-emergence herbicidal activity on ECHCG (barnyardgrass); format: in vivo, Echinochloa crus-galli; settings: post-emergence spray; lowest tested rate with 80% or greater inhibition; about 14 days after treatment
# Text: as §1, §2, §3, §4, §5
# POROL [22] = test: Post-emergence herbicidal activity on POROL (common purslane; table head prints PORAL); format: in vivo, Portulaca oleracea; settings: post-emergence spray; lowest tested rate with 80% or greater inhibition; about 14 days after treatment
# Text: as §1, §2, §3, §4, §5
# SORHA [23] = test: Post-emergence herbicidal activity on SORHA (johnsongrass, seedling); format: in vivo, Sorghum halepense; settings: post-emergence spray; lowest tested rate with 80% or greater inhibition; about 14 days after treatment
# Text: as §1, §2, §3, §4, §5
# PANMI = test: Post-emergence herbicidal activity on PANMI (wild proso millet); format: in vivo, Panicum miliaceum; settings: post-emergence spray; lowest tested rate with 80% or greater inhibition; about 14 days after treatment
# ECHCG [24] = test: Pre-emergence herbicidal activity on ECHCG (barnyardgrass); format: in vivo, Echinochloa crus-galli; settings: lowest tested rate giving 80% or greater inhibition, approx. 14 days after planting and treating, greenhouse
# Procedure, shortened: as §6
# POROL [25] = test: Pre-emergence herbicidal activity on POROL (common purslane); format: in vivo, Portulaca oleracea; settings: lowest tested rate giving 80% or greater inhibition, approx. 14 days after planting and treating, greenhouse
# Procedure, shortened: as §6
# CONAR [26] = test: Pre-emergence herbicidal activity on CONAR (field bindweed); format: in vivo, Convolvulus arvensis; settings: lowest tested rate giving 80% or greater inhibition, approx. 14 days after planting and treating, greenhouse
# Procedure, shortened: as §6
# DATST [27] = test: Post-emergence herbicidal activity on DATST (jimsonweed); format: in vivo, Datura stramonium; settings: post-emergence spray; lowest tested rate with 80% or greater inhibition; about 14 days after treatment
# Text: as §1, §2, §3, §4, §5
# PANDI [28] = test: Post-emergence herbicidal activity on PANDI (fall panicum); format: in vivo, Panicum dichotomiflorum; settings: post-emergence spray; lowest tested rate with 80% or greater inhibition; about 14 days after treatment
# Text: as §1, §2, §3, §4, §5
SMILES,Post-emergence activity (GR80) SOLNI (SOLNI [1]),Post-emergence activity (GR80) CONAR (CONAR [4]),Post-emergence activity (GR80) DIGSA (DIGSA [7]),Post-emergence activity (GR80) AMARE (AMARE [9]),Post-emergence activity (GR80) CHEAL (CHEAL [11]),Post-emergence activity (GR80) SORVU (SORVU),Post-emergence activity (GR80) BRAPP (BRAPP [12]),Post-emergence activity (GR80) ABUTH (ABUTH [18]),Post-emergence activity (GR80) CIRAR (CIRAR [20]),Post-emergence activity (GR80) ECHCG (ECHCG [21]),Post-emergence activity (GR80) PORAL (POROL [22]),Post-emergence activity (GR80) SORHA (SORHA [23]),Post-emergence activity (GR80) PANMI (PANMI),Post-emergence activity (GR80) DATST (DATST [27]),Post-emergence activity (GR80) PANDI (PANDI [28]),also measured
CC(CNC(=O)c1cccc(C(F)(F)F)c1)NC(=O)c1cccc(I)c1 (stereo not drawn) [Example 59],phyto,phyto,phyto,"* (Where herbicidal activity was evident but 80% inhibition was not achieved at the highest rate tested (typically 1000 g/ha), an asterisk (*) is shown)",[empty],[empty],phyto,phyto,phyto,[empty],[empty],[empty],[empty],phyto,phyto,Pre-emergence activity (GR80) on PANDI (PANDI [2]): phyto; Pre-emergence activity (GR80) on CHEAL (CHEAL [3]): 500 g/ha; Pre-emergence activity (GR80) on CIRAR (CIRAR [5]): 1000 g/ha; Pre-emergence activity (GR80) on BRAPP (BRAPP [6]): phyto; Pre-emergence activity (GR80) on DIGSA (DIGSA [8]): phyto; Post-emergence activity (GR80) SETFA (SETFA [10]): [empty]; Pre-emergence activity (GR80) on SOLNI (SOLNI [13]): phyto; Pre-emergence activity (GR80) on AMARE (AMARE [14]): 250 g/ha; Pre-emergence activity (GR80) on SETFA (SETFA [15]): 1000 g/ha; Pre-emergence activity (GR80) on ABUTH (ABUTH [16]): phyto; Pre-emergence activity (GR80) on DATST (DATST [17]): 1000 g/ha; Pre-emergence activity (GR80) on SORHA (SORHA [19]): phyto; Pre-emergence activity (GR80) on ECHCG (ECHCG [24]): phyto; Pre-emergence activity (GR80) on PORAL (POROL [25]): 125 g/ha; Pre-emergence activity (GR80) on CONAR (CONAR [26]): phyto
"O=C(NCC(CCl)NC(=O)c1cccc(C(F)(F)F)c1)c1cccc(C(F)(F)F)c1 (stereo not drawn) [Example 12, N,N′-(3-chloro-1,2-propanediylbis)-3-(trifluoromethyl)benzamide]",[empty],[empty],[empty],[empty],[empty],[empty],[empty],[empty],1000 g/ha,[empty],1000 g/ha,[empty],[empty],[empty],[empty],–
